Reference: US20250381196A1 (SHANGHAI YAO YUAN BIOTECHNOLOGY CO., LTD., priority 2022, published 2025)
Where a name gives a salt, the structure may show the parent alone.

How the values were obtained:
ALPK1 = ALPK1 (Homo sapiens (Human), UniProt Q96QP1); assay: ALPK1 in vitro kinase assay (HTRF of TIFA phosphorylation); assay type: biochemical; details: ALPK1 2 nM activated by ADP-Heptose, TIFA substrate
Experimental: ALPK1 in vitro Kinase Assay
ALPK1 kinase activity was measured in an in vitro assay using ADP-Heptose as the ALPK1 ligand and activator of its kinase activity and TIFA protein as the ALPK1 phosphorylation substrate. Since phosphorylated TIFA proteins oligomerize, Homogeneous Time-Resolved Fluorescence (HTRF) was used to measure protein: protein interaction between HA-tagged TIFA proteins as an indicator of TIFA phosphorylation.
In brief, dose-response studies were performed in 384-well assay plates. Each well contained 0.1 mg TIFA, ALPK1 (2 nM final concentration in reaction mixture) and kinase buffer (100 mM of HEPES pH 7.4, 4 mM DTT, 40 mM MgCl2, 20 mM of β-Glycerol phosphate disodium salt, 0.4 mM of Na3VO4, 0.16 mg/mL). Titrations of the test compounds were prepared in dimethylsulphoxide (DMSO). The reaction was initiated by addition of ATP and ADP-Heptose.
For HTRF, samples were incubated with a Tb cryptate-labeled anti-HA antibody for capturing HA-tagged proteins according to the manufacturer's instructions (PerkinElmer™, CisBio™) and the fluorescence signal was quantified (Tecan Infinite F NANO+). HTRF signals were calculated as the HTRF ratio (ratio of fluorescence measured at 665 nm and 620 nm)×104 (thereby using the signal at 620 nm as an internal standard).
IC50 values were determined using 3- or 4-parameter logistic equation using GraphPad Prism version 6.00. The reference compound, A027, was used as a positive control for each plate.

[1] = test system: ALPK1-dependent NFκB reporter gene activation in HEK293 cells stably expressing an NF-kB reporter (G9 cells); assay: NFκB gene reporter alkaline phosphatase assay; assay type: cell-based; details: Homo sapiens, read-out: NFKB assay IC50
Experimental: NFκB Gene Reporter Alkaline Phosphatase Assay
An alkaline phosphatase reporter assay system was used to measure inhibition of ALPK1-dependent NFκB reporter gene activation. Briefly, HEK293 cells stably expressing an NF-kB reporter (referred to herein as “G9 cells”) were maintained in Dulbecco's Modified Eagle Medium (DMEM) supplemented with 10% fetal bovine serum (FBS, Hyclone™) containing antibiotics (pen/strep, G418) […]. For the assay, cells were seeded into 96-well plates at a density of 10,000 cells/well in Freestyle™ 293 Expression Medium (ThermoFisher) and allowed to attach overnight. […] NFkB gene activation was detected using the chromogenic substrate, para-nitrophenyl phosphate (pNPP) according to the manufacturer's protocols (pNPP Phosphatase Assay, Beyotime Biotechnology).

[2] = test system: UUO induced kidney fibrosis; details: rat UUO
Text: Briefly, we ligated the left ureter of rat and then start the daily oral treatment right after the surgery for 7 days, and then measure the kidney fibrosis by hydroxyproline content measurement and Sirus red staining. Because of the amount of renal inflammation, we used hydroxyproline (OH-P) content indexed to total protein for interpretation of UUO-induced fibrosis and compound efficacy (FIG. 3A) For completeness, we also analyzed the OH-P content indexed to tissue mass (FIG. 3B).

[3] = test system: adenine diet induced rat CKD model
Text: We started compound dosing from day 14 after adenine diet inception for 6 weeks. During the study, we collected plasma and measure the Blood Urea Nitrogen (BUN) (FIG. 6A) and creatine (FIG. 6B) level weekly.

[4] = test system: lupus nephritis in MRL/MpJ-Faslpr/J mice; assay: MRL/MpJ-Faslpr/J mouse lupus nephritis model; assay type: in vivo
Text: After 8 weeks of treatment, the animals were sacrificed, and their urine was collected for proteinuria assessment using Urine Protein Test Strips (FIG. 9). The right kidneys were harvested and stained by hematoxylin and eosin (H&E) for pathological evaluation (FIG. 10A-G).

[5] = test system: ALPK1-dependent gene expression in kidney; assay: Inhibition of ALPK1 in kidney: ALPK1 agonist-induced gene expression in rats; assay type: in vivo, Sprague-Dawley (SD) rats; details: SD rats, oral 2, 5, 10, 20 mpk 21 h before ip ALPK1 agonist, kidneys 3 h after agonist; relative to vehicle group
[6] = daily oral treatment for 7 days, C008 at 7 mpk & 20 mpk
[7] = 10 mg/kg oral daily, 8 weeks, kidney H&E

ALPK1, sequence (Q96QP1 whole entry): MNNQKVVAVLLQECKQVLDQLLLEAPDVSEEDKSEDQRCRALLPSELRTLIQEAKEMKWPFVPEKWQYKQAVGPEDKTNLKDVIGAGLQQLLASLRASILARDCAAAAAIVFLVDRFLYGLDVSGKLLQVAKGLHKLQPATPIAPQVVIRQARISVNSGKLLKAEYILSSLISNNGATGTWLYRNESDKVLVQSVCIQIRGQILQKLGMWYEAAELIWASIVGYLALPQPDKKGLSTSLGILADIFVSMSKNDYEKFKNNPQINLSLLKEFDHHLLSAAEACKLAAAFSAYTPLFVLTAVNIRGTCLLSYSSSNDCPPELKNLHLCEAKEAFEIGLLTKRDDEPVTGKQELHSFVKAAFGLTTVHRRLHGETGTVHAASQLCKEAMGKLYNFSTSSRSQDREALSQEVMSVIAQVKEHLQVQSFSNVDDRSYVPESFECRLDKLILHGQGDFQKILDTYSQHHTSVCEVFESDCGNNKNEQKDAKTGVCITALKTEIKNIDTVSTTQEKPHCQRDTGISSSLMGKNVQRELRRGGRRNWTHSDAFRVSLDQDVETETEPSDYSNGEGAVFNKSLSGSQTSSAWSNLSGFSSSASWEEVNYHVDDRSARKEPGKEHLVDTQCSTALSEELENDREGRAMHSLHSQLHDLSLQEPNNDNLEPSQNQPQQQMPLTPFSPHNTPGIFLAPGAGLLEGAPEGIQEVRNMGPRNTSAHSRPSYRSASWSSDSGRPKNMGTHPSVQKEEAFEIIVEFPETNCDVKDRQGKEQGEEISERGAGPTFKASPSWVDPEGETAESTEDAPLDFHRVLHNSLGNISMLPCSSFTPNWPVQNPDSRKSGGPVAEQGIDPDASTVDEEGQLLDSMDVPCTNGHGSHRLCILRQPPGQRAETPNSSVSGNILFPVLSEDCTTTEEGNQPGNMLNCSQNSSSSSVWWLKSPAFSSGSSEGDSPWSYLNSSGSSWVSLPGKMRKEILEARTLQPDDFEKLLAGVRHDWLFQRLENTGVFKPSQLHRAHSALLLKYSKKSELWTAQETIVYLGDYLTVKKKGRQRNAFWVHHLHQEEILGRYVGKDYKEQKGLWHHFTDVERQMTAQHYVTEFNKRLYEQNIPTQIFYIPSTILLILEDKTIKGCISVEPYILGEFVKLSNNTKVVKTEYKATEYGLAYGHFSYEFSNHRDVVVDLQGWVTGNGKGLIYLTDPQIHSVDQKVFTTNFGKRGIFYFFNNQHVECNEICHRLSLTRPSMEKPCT

SMILES: C#C[C@@](C)(c1ccc(F)cc1)c1csc(NC(=O)c2ccc(N3CCNCC3CO)cc2)n1 (stereo in doubt) [Example B070, N-[4-[1-(4-fluorophenyl)-1-methyl-prop-2-ynyl]thiazol-2-yl]-4-[2-(hydroxymethyl)piperazin-1-yl]benzamide]
- IC50 (ALPK1): 169 nM

SMILES: C#C[C@](C)(c1ccc(Cl)cc1)c1csc(NC(=O)c2c(F)cc(N3CCN(C)CC3)cc2F)n1 (stereo in doubt) [Example C009, N-(4-(2-(4-chlorophenyl)but-3-yn-2-yl)thiazol-2-yl)-2,6-difluoro-4-(4-methylpiperazin-1-yl)benzamide]
- IC50 (ALPK1): 7 nM

SMILES: C#C[C@](C)(c1ccc(Cl)cc1)c1nc(NC(=O)c2c(F)cc(N3CCNCC3)cc2F)sc1Cl (stereo in doubt) [Example C050, N-(5-chloro-4-(2-(4-chlorophenyl)but-3-yn-2-yl)thiazol-2-yl)-2,6-difluoro-4-(piperazin-1-yl)benzamide]
- IC50 (ALPK1): 923 nM

SMILES: COc1ccc(C(C)(C)c2csc(NC(=O)NCc3cc(F)c(C4CCNCC4)c(F)c3)n2)cc1 [Example A151, 1-(3,5-difluoro-4-(piperidin-4-yl)benzyl)-3-(4-(2-(4-methoxyphenyl)propan-2-yl)thiazol-2-yl)urea hydrochloride]
- IC50 [1]: 950 nM

SMILES: COc1ccc(C(C)(C)c2csc(NC(=O)NCc3cc(F)c(N4CCNCC4)cc3F)n2)cc1 [Example A231, 1-(2,5-difluoro-4-(piperazin-1-yl)benzyl)-3-(4-(2-(4-methoxyphenyl)propan-2-yl)thiazol-2-yl)urea hydrochloride]
- IC50 [1]: 3360 nM

SMILES: COc1ccc(C(C)(C)c2csc(NC(=O)N3CC(c4ccc(N5CCNCC5)cc4)C3)n2)cc1 [Example A233, N-(4-(2-(4-methoxyphenyl)propan-2-yl)thiazol-2-yl)-3-(4-(piperazin-1-yl)phenyl)azetidine-1-carboxamide]
- IC50 [1]: 330 nM

SMILES: COc1ccc(C(C)(C)c2csc(NC(=O)c3ccc(N4CCC(O)C4)cc3)n2)cc1 (centres unmarked) [Example B009, 4-(3-hydroxypyrrolidin-1-yl)-N-(4-(2-(4-methoxyphenyl)propan-2-yl)thiazol-2-yl)benzamide]
- IC50 (ALPK1): 95 nM

SMILES: COc1ccc(C(C)(C)c2csc(NC(=O)c3ccc(N4CCNCC4C)cc3)n2)cc1 (centres unmarked) [Example B014]
- IC50 (ALPK1): 300 nM

SMILES: C#C[C@@](C)(c1ccc(Cl)cc1)c1csc(NC(=O)c2c(F)cc(N3CCNCC3)cc2F)n1 [Example C008, (S)-N-(4-(2-(4-chlorophenyl)but-3-yn-2-yl)thiazol-2-yl)-2,6-difluoro-4-(piperazin-1-yl)benzamide]
- UUO induced kidney fibrosis ([2]; C008 2, 7, 20 mg/kg): dose dependently suppress
- UUO-induced increases in renal cortical CVF (Collagen Volume Fraction, Sirus Red) [2, 6]: attenuated
- UUO-induced increases in renal cortical OH-P (hydroxyproline) [2, 6]: attenuated
- kidney expression of genes involved in fibrosis and inflammation ([2]; separate study, C008 5, 10, 20 mg/kg): inhibited
- adenine-induced increases in renal cortical CVF ([3]; rat adenine diet, end of study, C008 at 7 and 20 mpk): attenuated
- adenine-induced increases in plasma creatinine ([3]; rat adenine diet, ALK5i: days 35-56, C008: days 35 (20 mpk), 49 & 56 (7&20 mpk)): attenuated
- adenine-induced increases in plasma BUN ([3]; rat adenine diet, ALK5i: days 35-56, C008: days 42 (20 mpk), 49 (7&20 mpk), 56 (20 mpk)): attenuated
- adenine diet induced kidney dysfunction and kidney fibrosis ([3]; rat, C008 7, 20 mg/kg, dosing from day 14 for 6 weeks): significantly inhibit
- proteinuria scores ([4]; 10 mg/kg oral daily, 8 weeks, compared to vehicle disease group): significant reduction
- pathological score: crescent [4, 7]: significantly lower
- pathological score: glomerulus diameter [4, 7]: significantly lower
- pathological score: interstitial inflammation [4, 7]: significantly lower
- pathological score: protein cast [4, 7]: significantly lower
- mRNA expression of Ccl2, Ccl4, Ccl5, Ccr1 and IL-6 in kidney ([4]; left kidneys, qPCR, after 8 weeks, relative to vehicle group): significant decreases
- mRNA expression for CCL-2, CCL-7, CXCL-1, CXCL-10, IL-1β and IL-6 in kidney [5]: significant decreases
